Data taken from patent US20250235403A1, “COMPOSITIONS AND METHODS OF THE DELIVERY OF ACTIVE AGENTS INCLUDING NUCLEIC ACIDS” (Ohio State Innovation Foundation, priority 2021, published 2025).

Assays:
[1] = Evaluation of squalene as a fusogenic oil (OD500/OD600 of anionic nanoemulsions); assay type: physicochemical; conditions: oil/DOPC/CHEMS nanoemulsions; versus medium-chain and long-chain triglyceride
Experimental: To compare the fusogenicities of different oils, simple anionic nanoemulsions were prepared. The compositions evaluated were: oil/DOPC/CHEMS (30:40:40 mole/mole). Oil was selected from squalene, medium-chain triglyceride (MCT) from Abitec (Captex 300), long-chain triglyceride (LCT, soybean oil from Sigma-Aldrich). DOPC: dioleoylphosphatidylcholine, CHEMS: cholesterol hemisuccinate. The various formulations were prepared at pH 8.0 in PBS and then diluted into various buffers with different pH values and incubated for 5 min at room temperature prior to OD measurement. OD500 and OD600 were measured to indicate particle size, with larger particle size indicating increased fusogenicity.

[2] = Saturated solubility study; assay type: physicochemical; conditions: in squalene-based NE compared with PBS solvent
Experimental: In the saturated solubility study, R848 or IVM were dissolved in PBS or formulated in NE at 2 mg/ml and incubated at room temperature for 24 hours. Insoluble solid drugs were pelleted down by centrifugation. Supernatants were collected for concentration analysis. R848 concentrations were quantified by UV-Vis spectrometry at 320 nm using a NanoDrop 2000 spectrophotometer. IVM concentrations were quantified by high-performance liquid chromatography (HPLC) using an isocratic mobile phase composed of water/methanol/acetonitrile (8:36:56, v/v/v), an C18 column (Kromasil 150-C-18, 4.6×150 mm), and PDA detection at 230 nm.

MC38 cells = experiment: In vitro gene regulation by R848 NE, IVM NE, R848-IVM NE; assay type: cell-based, murine; conditions: 8 μM, 24 hours
Experimental: MC38 cells were seeded at 3×10^5 cells/well in 6-well plates 24 hours before treatments. […] R848 and IVM were both treated at 8 μM, either as free drug solution or in squalene NE. Total RNA was extracted using TRI reagent (Zymo Research) per manufacturer protocol. cDNA was prepared by high-capacity cDNA reverse transcription kit (Invitrogen, Waltham, MA, USA), and real-time qPCR (RT-qPCR) was done using SsoAdvanced™ Universal SYBRR Green Supermix (Bio-Rad Laboratories, Hercules, CA) on a QuantStudio 7 Flex Real-time PCR System. RT-qPCR primers for murine Calreticulin, Hmgb1, Lc3b, and Actb were purchased from Sigma-Aldrich. Actb was selected as the housekeeping gene control. The relative amount of RNA level was calculated and compared according to the 2−ΔΔCt method.

| fusogenicity [1] | Compound | increase of solubility [2] | Calreticulin mRNA level (MC38 cells) |
| --- | --- | --- | --- |
| improved fusogenicity | CC(C)=CCC/C(C)=C/CC/C(C)=C/CC/C=C(\C)CC/C=C(\C)CCC=C(C)C [squalene] |  |  |
|  | CC[C@H](C)[C@H]1O[C@]2(CC[C@@H]1C)C[C@@H]1C[C@@H](C/C=C(\C)[C@@H](O[C@H]3C[C@H](OC)[C@@H](O[C@H]4C[C@H](OC)[C@@H](O)[C@H](C)O4)[C@H](C)O3)[C@@H](C)/C=C/C=C3\CO[C@@H]4[C@H](O)C(C)=C[C@@H](C(=O)O1)[C@]34O)O2 [IVM, Ivermectin] | 100 fold | did not show significant Calreticulin regulation |
|  | CCOCc1nc2c(N)nc3ccccc3c2n1CC(C)(C)O [R848, Resiquimod] | 2 fold |  |
